From US20160046579A1, “THERAPEUTIC COMPOUNDS AND COMPOSITIONS” (AGIOS PHARMACEUTICALS, INC., priority 2013, published 2016) come the findings set out here.

Broadly, the AC50 is the concentration at which the activity in the assay is half-maximal.

Assay [1] deals with T1, wt PKR (Homo sapiens, UniProt P30613). In words: wt PKR cell based assay.
Assay [2] deals with PKR R532W (Homo sapiens, UniProt P30613, R532W). Kind of assay: PKR Mutant Assay, dose response (AC50), PKR R532W. The format is biochemical. The following applies: PKR R532W mutant enzyme. As for the experimental part:
(§1) • PKR or PKR mutant enzyme solution was diluted in assay buffer. • 2 μL of test compound was added into wells first, and then 180 μL reaction mix was added. • Reactions mixture with test compound was assembled except for ADP, and plates were stored for 60 minutes at room temperature. • 20 uL ADP was added to start reaction at room temperature and reaction progress was measured as changes in absorbance at 340 nm wavelength at room temperature.
(§2) Test Compound Preparation: • Test compound stock was made at 100× concentration in 100% DMSO (10 mM) • 1 to 3 dilutions were made for 11 points (i.e. 50 μl of first concentration added to 100 μl 100% DMSO to yield 3.33 mM, 50 μl of this added to 100 μl DMSO to yield 1.11 mM, and so forth) • 1 to 100 dilution into assay (2 μl in 200 μl) yielded starting concentration of 100 μM, decreasing 3 fold for 11 points.

Assay [3] deals with T1, wt PKR. Kind of assay: PKR Mutant Assay, dose response (AC50), wild type PKR enzyme. The format is biochemical. The protocol: as §1, §2
The target in assay [4] is PKR R510Q (Homo sapiens, UniProt P30613, R510Q). In words: PKR Mutant Assay, dose response (AC50), PKR R510Q. The format is biochemical. Conditions: PKR R510Q mutant enzyme. As for the experimental part: as §1, §2

Structures are written as SMILES.

PKR R510Q, sequence (P30613 whole entry R510Q): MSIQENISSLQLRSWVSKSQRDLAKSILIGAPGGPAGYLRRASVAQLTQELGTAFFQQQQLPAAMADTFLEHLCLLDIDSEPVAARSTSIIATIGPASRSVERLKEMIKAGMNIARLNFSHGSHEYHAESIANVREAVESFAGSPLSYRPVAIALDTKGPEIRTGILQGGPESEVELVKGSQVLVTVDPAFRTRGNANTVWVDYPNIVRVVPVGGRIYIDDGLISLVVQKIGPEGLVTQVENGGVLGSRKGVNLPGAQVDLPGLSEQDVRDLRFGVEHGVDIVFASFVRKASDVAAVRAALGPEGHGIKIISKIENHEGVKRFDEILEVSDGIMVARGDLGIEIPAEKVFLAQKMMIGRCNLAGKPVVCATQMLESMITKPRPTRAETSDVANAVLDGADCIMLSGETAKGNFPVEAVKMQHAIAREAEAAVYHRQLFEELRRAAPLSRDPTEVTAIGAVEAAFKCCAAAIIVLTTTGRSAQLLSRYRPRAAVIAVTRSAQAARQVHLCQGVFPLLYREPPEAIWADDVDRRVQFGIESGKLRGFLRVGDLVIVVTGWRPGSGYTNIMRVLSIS
PKR R532W, sequence (P30613 whole entry R532W): as the sequence (P30613 whole entry R510Q) above, with Q510R, R532W counted along it
T1 sequence (P30613 whole entry): as the sequence (P30613 whole entry R510Q) above, with Q510R counted along it

As to `Cc1ccccc1CC1(O)CCN(C(=O)c2ccc(NS(=O)(=O)c3cccc4scnc34)cc2)CC1` [Compound 125], the AC50 in assay [1], in assay [2], in assay [3] (wild type PKR enzyme) and in assay [4] was less than 100 nM each time.
For `CC(F)(F)CCC1(O)CCN(C(=O)c2ccc(NS(=O)(=O)c3cccc4scnc34)cc2F)CC1` [Compound 469, N-(4-(4-(3,3-difluorobutyl)-4-hydroxypiperidine-1-carbonyl)-3-fluorophenyl)benzo[d]thiazole-4-sulfonamide], the AC50 in assay [1] fell in the range of 1010 to 10000 nM; in assay [2] it was 101 to 1000 nM; in assay [3] (wild type PKR enzyme), 101 to 1000 nM; in assay [4], 101 to 1000 nM.
As to `CC(F)(F)CCC1(O)CCN(C(=O)c2ccc(NS(=O)(=O)c3cccc4scnc34)cc2OC(F)F)CC1` [Compound 473, N-(4-(4-(3,3-difluorobutyl)-4-hydroxypiperidine-1-carbonyl)-3-(difluoromethoxy)phenyl)benzo[d]thiazole-4-sulfonamide], the AC50 is 101 to 1000 nM in assay [1], less than 100 nM in assay [2], less than 100 nM in assay [3] (wild type PKR enzyme) and 101 to 1000 nM in assay [4].
For `CC(F)(F)CCC1(O)CCN(C(=O)c2ccc(NS(=O)(=O)c3cccc4nccnc34)cc2F)CC1` [Compound 478, N-(4-(4-(3,3-difluorobutyl)-4-hydroxypiperidine-1-carbonyl)-3-fluorophenyl)quinoxaline-5-sulfonamide], the AC50 in assay [1], in assay [2], in assay [3] (wild type PKR enzyme) and in assay [4] was 101 to 1000 nM each time.
In the case of `Cc1cc(C2(O)CCN(C(=O)c3ccc(NS(=O)(=O)c4cccc5scnc45)cc3)CC2)sn1` [Compound 479], the concentration at half-maximal activity (AC50) in assay [1] was 101 to 1000 nM; in assay [2] it was less than 100 nM; in assay [3] (wild type PKR enzyme), less than 100 nM; in assay [4] it was 101 to 1000 nM.
For the molecule `O=C(c1ccc(NS(=O)(=O)c2cccc3scnc23)cc1)N1CCC(O)(c2scnc2Cl)CC1` [Compound 480, N-(4-(4-(4-chlorothiazol-5-yl)-4-hydroxypiperidine-1-carbonyl)phenyl)benzo[d]thiazole-4-sulfonamide], the AC50 is 101 to 1000 nM in assay [1], less than 100 nM in assay [2], less than 100 nM in assay [3] (wild type PKR enzyme) and 101 to 1000 nM in assay [4].
`Nc1cnc2c(S(=O)(=O)Nc3ccc(C(=O)N4CCC(O)(CCCC(F)(F)F)CC4)cc3)cccc2n1` [Compound 482, 2-amino-N-(4-(4-hydroxy-4-(4,4,4-trifluorobutyl)piperidine-1-carbonyl)phenyl)quinoxaline-5-sulfonamide]: the concentration at half-maximal activity (AC50) in assay [1], in assay [2], in assay [3] (wild type PKR enzyme) and in assay [4] was less than 100 nM in each case.
For `CC(F)(F)CCC1(O)CCN(C(=O)c2ccc(NS(=O)(=O)c3cc(F)cc4sc(N)nc34)cc2F)CC1` [Compound 483, 2-amino-N-(4-(4-(3,3-difluorobutyl)-4-hydroxypiperidine-1-carbonyl)-3-fluorophenyl)-6-fluorobenzo[d]thiazole-4-sulfonamide], the AC50 in assay [1] was 101 to 1000 nM; in assay [2], 101 to 1000 nM; in assay [3] (wild type PKR enzyme) it was less than 100 nM; in assay [4], 101 to 1000 nM.
Regarding `CC(F)(F)CCC1(O)CCN(C(=O)c2ccc(NS(=O)(=O)c3cccc4nc(N)cnc34)cc2)CC1` [Compound 486, 2-amino-N-(4-(4-(3,3-difluorobutyl)-4-hydroxypiperidine-1-carbonyl)phenyl)quinoxaline-5-sulfonamide], the half-maximal activity concentration (AC50) in assay [1] is less than 100 nM; in assay [2], less than 100 nM; in assay [3] (wild type PKR enzyme), less than 100 nM; in assay [4], 101 to 1000 nM.
Take `O=C(c1ccc(NS(=O)(=O)c2cccc3scnc23)cc1)N1CCC(O)(Cc2nc(Cl)cs2)CC1` [Compound 489, N-(4-(4-((4-chlorothiazol-2-yl)methyl)-4-hydroxypiperidine-1-carbonyl)phenyl)benzo[d]thiazole-4-sulfonamide]: the AC50 is 101 to 1000 nM in assay [1] and less than 100 nM in assay [3] (wild type PKR enzyme).
As for `CC(F)(F)CCC1(O)CCN(C(=O)c2ccc(NS(=O)(=O)c3cc(F)cc4sc(N)nc34)cc2C#N)CC1` [Compound 491, 2-amino-N-(3-cyano-4-(4-(3,3-difluorobutyl)-4-hydroxypiperidine-1-carbonyl)phenyl)-6-fluorobenzo[d]thiazole-4-sulfonamide], the AC50 in assay [1], in assay [2], in assay [3] (wild type PKR enzyme) and in assay [4] was 101 to 1000 nM throughout.
Take `CC(F)(F)CCC1(O)CCN(C(=O)c2ccc(NS(=O)(=O)c3cccc4nccnc34)cc2C#N)CC1` [Compound 492]: the AC50 in assay [1], in assay [2], in assay [3] (wild type PKR enzyme) and in assay [4] was 101 to 1000 nM throughout.
On to `Nc1cnc2c(S(=O)(=O)Nc3ccc(C(=O)N4CCC(O)(c5cccc(F)c5F)CC4)cc3)cccc2n1` [Compound 493, 2-amino-N-(4-(4-(2,3-difluorophenyl)-4-hydroxypiperidine-1-carbonyl)phenyl)quinoxaline-5-sulfonamide], for which the AC50 in assay [1], in assay [2], in assay [3] (wild type PKR enzyme) and in assay [4] was less than 100 nM throughout.
For the molecule `Cc1nscc1CC1(O)CCN(C(=O)c2ccc(NS(=O)(=O)c3cccc4nccnc34)cc2)CC1` [Compound 497, N-(4-(4-hydroxy-4-((3-methylisothiazol-4-yl)methyl)piperidine-1-carbonyl)phenyl)quinoxaline-5-sulfonamide], the half-maximal activity concentration (AC50) in assay [1], in assay [2], in assay [3] (wild type PKR enzyme) and in assay [4] was less than 100 nM throughout.
Turning to `O=C(c1ccc(NS(=O)(=O)c2cccc3scnc23)cc1)N1CCC(O)(Cc2cn[nH]c2)CC1` [Compound 498, N-(4-(4-((1H-pyrazol-4-yl)methyl)-4-hydroxypiperidine-1-carbonyl)phenyl)benzo[d]thiazole-4-sulfonamide], the AC50 in assay [1] is 101 to 1000 nM; in assay [2] it was less than 100 nM; in assay [3] (wild type PKR enzyme) it was less than 100 nM; in assay [4] it was 101 to 1000 nM.
`O=C(c1ccc(NS(=O)(=O)c2cccc3nccnc23)cc1)N1CCC(O)(Cc2cn[nH]c2)CC1` [Compound 499, N-(4-(4-((1H-pyrazol-4-yl)methyl)-4-hydroxypiperidine-1-carbonyl)phenyl)quinoxaline-5-sulfonamide]: the half-maximal activity concentration (AC50) in assay [1] is 101 to 1000 nM; in assay [2], less than 100 nM; in assay [3] (wild type PKR enzyme) it was less than 100 nM; in assay [4], 101 to 1000 nM.
In the case of `O=C(c1ccc(NS(=O)(=O)c2cccc3nccnc23)cc1)N1CCC(O)(Cc2cc[nH]n2)CC1` [Compound 500, N-(4-(4-((1H-pyrazol-3-yl)methyl)-4-hydroxypiperidine-1-carbonyl)phenyl)quinoxaline-5-sulfonamide], the AC50 was in the range of 101 to 1000 nM in assay [1], 101 to 1000 nM in assay [2], 101 to 1000 nM in assay [3] (wild type PKR enzyme) and 1010 to 10000 nM in assay [4].
Take `CC(C)CC1(OP(=O)(O)O)CCN(C(=O)c2ccc(NS(=O)(=O)c3cccc4scnc34)cc2)CC1` [Compound 524]: the AC50 in assay [1] was 1010 to 10000 nM; in assay [2], greater than 10000 nM; in assay [3] (wild type PKR enzyme) it was greater than 10000 nM.
On to `Cc1cc(C2(O)CCN(C(=O)c3ccc(NS(=O)(=O)c4cccc5scnc45)cc3)CC2)sn1` [Compound 528, N-(4-(4-hydroxy-4-(3-methylisothiazol-5-yl)piperidine-1-carbonyl)phenyl)benzo[d]thiazole-4-sulfonamide], for which the AC50 was 101 to 1000 nM in assay [1] (wild type PKR) and less than 100 nM in assay [3] (wild type PKR, enzymatic assay).
